Measurements as given in BindingDB's records for doi:10.1002/cbic.200300842 (University of Georgia, 2004).
Values joined by “and” are separate entries in the source; they are usually repeats but may differ in a detail not shown here. Identical values can stand only once.

Target: T1, Alpha-mannosidase 2 (Homo sapiens, UniProt Q16706)
T1 sequence (Q16706 whole entry): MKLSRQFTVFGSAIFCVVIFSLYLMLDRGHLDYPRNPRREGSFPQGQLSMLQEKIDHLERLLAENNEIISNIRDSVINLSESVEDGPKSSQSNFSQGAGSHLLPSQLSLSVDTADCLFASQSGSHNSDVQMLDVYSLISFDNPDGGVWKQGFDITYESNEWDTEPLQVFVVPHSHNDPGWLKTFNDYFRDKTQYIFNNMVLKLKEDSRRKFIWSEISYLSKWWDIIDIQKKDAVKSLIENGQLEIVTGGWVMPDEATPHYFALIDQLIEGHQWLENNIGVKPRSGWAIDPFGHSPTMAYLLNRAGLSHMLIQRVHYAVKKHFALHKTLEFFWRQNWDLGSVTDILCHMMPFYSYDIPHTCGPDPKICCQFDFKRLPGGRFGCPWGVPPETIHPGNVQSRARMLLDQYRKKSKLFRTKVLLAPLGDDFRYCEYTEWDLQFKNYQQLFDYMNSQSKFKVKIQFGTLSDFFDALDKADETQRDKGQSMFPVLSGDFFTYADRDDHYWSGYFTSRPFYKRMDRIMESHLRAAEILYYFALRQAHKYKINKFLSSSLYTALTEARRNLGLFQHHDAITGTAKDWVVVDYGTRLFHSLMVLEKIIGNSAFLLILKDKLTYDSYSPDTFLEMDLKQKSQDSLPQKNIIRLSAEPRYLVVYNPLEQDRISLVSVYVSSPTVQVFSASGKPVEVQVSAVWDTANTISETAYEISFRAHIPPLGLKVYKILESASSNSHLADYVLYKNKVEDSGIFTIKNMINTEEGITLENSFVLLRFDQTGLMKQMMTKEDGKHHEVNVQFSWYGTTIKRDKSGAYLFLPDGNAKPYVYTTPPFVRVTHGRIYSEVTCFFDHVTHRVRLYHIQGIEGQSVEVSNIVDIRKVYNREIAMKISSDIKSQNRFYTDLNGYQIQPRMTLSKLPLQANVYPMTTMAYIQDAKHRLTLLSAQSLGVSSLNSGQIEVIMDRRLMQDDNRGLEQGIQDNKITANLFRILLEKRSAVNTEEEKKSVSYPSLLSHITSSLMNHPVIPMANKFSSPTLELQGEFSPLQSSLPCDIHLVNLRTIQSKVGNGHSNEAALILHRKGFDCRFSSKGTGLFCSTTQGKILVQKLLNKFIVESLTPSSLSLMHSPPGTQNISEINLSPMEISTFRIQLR
Details: pH 5.6; 37 °C

| Structure (SMILES) | Ki |
| --- | --- |
| CS[C@H]1[C@H](O)[C@H](O)[C@H](O)[C@@H]1NCc1ccc(F)cc1 [Benzylation of mannostatin A, 1c] | 530 nM and 170 nM |
| N[C@H]1[C@@H](O)[C@@H](O)[C@@H](O)[C@H]1O [Mannostatin analogue, 4b] | 50000 nM and 6600 nM |
| COc1ccc(CN[C@H]2[C@@H](O)[C@@H](O)[C@@H](O)[C@@H]2SC)cc1 [Benzylation of mannostatin A, 1f] | 520 nM and 100 nM |
| CS[C@H]1[C@H](O)[C@H](O)[C@H](O)[C@@H]1NCc1ccc(Cl)cc1 [Benzylation of mannostatin A, 1d] | 910 nM and 100 nM |
| CS[C@@H]1[C@@H](N)[C@@H](O)[C@@H](O)[C@H]1O [Mannostatin A, 1] | 210 nM and 90 nM |
